Test results as given in patent US20100087523A1, “Rupestonic acid derivatives and use thereof” (priority 2008, published 2010).

Legend:
[1] = system: A-type flu virus (jifang/90-15)
[2] = system: B-type flu virus (jifang/97-13)

| SMILES | Activity for inhibiting A-type flu viruses SI (selection index, SI = TC50/IC50) [1] | Activity for inhibiting B-type flu viruses SI (selection index, SI = TC50/IC50) [2] |
| --- | --- | --- |
| C=C(C(=O)Nc1ccc(Cl)cc1)C1CCC(C)C2CC(=O)C(C)=C2C1 (stereo not shown) [A-2, N(4-chloro-phenyl)-Rupestonic amide] | 6.3 | 4.0 |
| C=C(C(=O)Nc1ccccc1Br)C1CCC(C)C2CC(=O)C(C)=C2C1 (stereo not shown) [A-5, N(2-bromo-phenyl)-Rupestonic amide] | 3.3 | – |
| C=C(C(=O)OCC)C1CCC(C)C2CC(=O)C(C)=C2C1 (stereo not shown) [B-1, Ethyl Rupestonic ester] | 4.9 | 3.8 |
| C=C(C(=O)Oc1ccc(Cl)cc1)C1CCC(C)C2CC(=O)C(C)=C2C1 (stereo not shown) [B-2, Rupestonic (p-chlorophenyl)-ester] | 12.6 | – |
| C=C(C(=O)Oc1ccccc1Cl)C1CCC(C)C2CC(=O)C(C)=C2C1 (stereo not shown) [B-3, Rupestonic (o-chlorophenyl)-ester] | 4.3 | – |
| C=C(C(=O)Oc1ccc(Br)cc1)C1CCC(C)C2CC(=O)C(C)=C2C1 (stereo not shown) [B-4, Rupestonic (p-bromophenyl)-ester] | 4.3 | – |
| C=C(C(=O)Oc1ccc(C)cc1)C1CCC(C)C2CC(=O)C(C)=C2C1 (stereo not shown) [B-9, Rupestonic (p-methylphenyl)-ester] | 14.3 | – |
| C=C(C(=O)OCc1ccc(Cl)cc1)C1CCC(C)C2CC(=O)C(C)=C2C1 (stereo not shown) [B-14, Rupestonic (p-chlorobenzyl)-ester] | 3.8 | 2.5 |
| C=C(C(=O)OCc1ccc([N+](=O)[O-])cc1)C1CCC(C)C2CC(=O)C(C)=C2C1 (stereo not shown) [B-15, Rupestonic (p-nitryl-benzyl)-ester] | 4.6 | 4.6 |
| C=C(C(=O)OCc1ccccc1Br)C1CCC(C)C2CC(=O)C(C)=C2C1 (stereo not shown) [B-17, Rupestonic (o-bromobenzyl)-ester] | 3.9 | 2.2 |
| C=C(C(=O)O)[C@H]1CC[C@H](C)[C@@H]2CC(=O)C(C)=C2C1 [Compound 1, rupestonic acid] | – | 9.00 |
| CCOC(=O)C1=C[C@@H](OC(CC)CC)[C@H](NC(C)=O)[C@@H](N)C1 [Oseltamivir] | >239.1 | – |
| NC(=O)c1ncn([C@@H]2O[C@H](CO)[C@@H](O)[C@H]2O)n1 [Ribavirin] | 982.8 | 132.1 |
